# Molecular target: T1, FimH proteins (Escherichia coli, UniProt Q1R2J4)
# T1 construct: endogenous in cells; host or cells: UPEC strain UTI89 (whole bacteria)
# Experiment: hemagglutination inhibition (HAI) assay: UPEC UTI89 with guinea pig red blood cells
# Assay type: cell-based, uropathogenic Escherichia coli (UPEC) UTI89
# Conditions: read-out: HAI EC90 (minimum concentration for inhibiting hemagglutination)
# Experimental: In the present example, the mannose derivatives A1 to A107 that were prepared in Examples 1 to 12 were analyzed in hemagglutination inhibition (HAI) assays to determine inhibitory effects of the compounds on the function/activity of FimH proteins.
# 1. Preparation of a guinea pig red blood cell solution: an adult guinea pig was anesthetized with ethyl ether, blood was sampled from the heart, placed in an EDTA blood collection tube, and centrifuged at 2,000 rpm for 5 min, serum was removed, the sample was transferred in a centrifuge tube (15 mL), sterilized PBS was added, the sample was centrifuged at 1,500 rpm for 10 min, a supernatant was removed, the sample was transferred in a centrifuge tube (50 mL), PBS was added, the sample was centrifuged at 1,500 rpm for 10 min and repeatedly washed twice, and red blood cells were slightly aspirated into a new centrifuge tube (50 mL) to obtain a 5% guinea pig red blood cell solution.
# 2. Preparation of a bacteria solution: a UPEC cell line UTI89 was inoculated on a medium plate and cultured in an incubator at 37° C. overnight. Single colonies were picked and inoculated in an LB medium in a sterilized conical flask, and cultured at 37° C. and 170 r/min overnight. When an OD value at 540 nm was about 0.8 on a microplate reader, the bacterial concentration was about 10^8-10^9 cfu/mL, the bacteria solution was centrifuged at 2,000 rpm for 10 min, a supernatant was removed, and 1 mL of bacteria solution was prepared into 0.1 mL of PBS bacteria solution. […] The bacteria and the medium were uniformly mixed by shaking, and reacted in an incubator at 25° C. for about 20-40 min. When the plate was read, the wells in which complete agglutination occurred were used as 4HAU for the hemagglutination titer of the bacteria. For example, if the endpoint titer of hemagglutination is 1:256, the dilution multiple of the 4HAU antigen is 1:64 (256 divided by 4). Bacteria solutions at corresponding concentrations were prepared according to the experimental results.
# 3. Activity assay: a compound to be tested or a standard product was placed in a 96-well microtest plate, 50 μL of drug at an initial concentration of 200 μM was placed in the first well, and from the second well, 25 μL of PBS was added to each well to dilute the drug in proportion. The drug and the medium in the first well were mixed, 25 μL of mixed drug solution was placed in the second well, the drug solution was diluted in sequence to the last well, and 25 μL of drug solution was removed. 25 μL of bacteria solution was placed in each well of the culture plate containing the diluted drug, and cultured at 37° C. for 40 min. 25 μL of 5% guinea pig red blood cell suspension was placed in each well, and slightly uniformly mixed with the drug, and the plate was placed at 4° C. for about 1 h. When results were determined, the plate was tilted 60°, and whether the red blood cells flowed like teardrops was observed.
# Mannosyl proteins are expressed on the surface of red blood cells in a guinea pig, which can bind to FimH proteins of UTI89 to cause hemagglutination. It can be observed with the naked eyes that the red blood cells form film-like agglutination at the bottom of the well, and loose red dots can be seen in the center. The FimH protein inhibitor competitively binds to FimH proteins to inhibit hemagglutination. It can be observed with the naked eyes that all the red blood cells sink and concentrate at the bottom of the well to form dense dots. The minimum concentration for inhibiting hemagglutination is expressed as an EC90 value of a compound. The final concentration of the compound in the first well is 66700 nM, the concentration in the second well is half that in the first well, the concentration in the third well is half that in the second well, and so on. […] A low EC90 value indicates high activity of a compound.
row,Compound,EC90
1,COCCOc1ccc(-n2cc(C#C[C@H]3O[C@H](CO)[C@@H](O)[C@H](O)[C@@]3(O)C#CC3CC3)cn2)cc1 [Compound A98],< 0.1 nM
2,OC[C@H]1O[C@H](C#Cc2cnn(-c3ccc(O[C@@H]4CCOC4)cc3)c2)[C@](O)(C#CC2CC2)[C@@H](O)[C@@H]1O [Compound A99],< 0.1 nM
3,OC[C@H]1O[C@H](C#Cc2cnn(-c3ccc(O[C@H]4CCOC4)cc3)c2)[C@](O)(C#CC2CC2)[C@@H](O)[C@@H]1O [Compound A100],< 0.1 nM
4,OC[C@H]1O[C@H](C#Cc2cnn(-c3cccc(F)c3)c2)[C@](O)(C#Cc2ccccc2)[C@@H](O)[C@@H]1O [Compound A101],0.25 nM
5,COCCOc1ccc(-n2cc(C#C[C@H]3O[C@H](CO)[C@@H](O)[C@H](O)[C@@]3(O)C#Cc3ccccc3)cn2)cc1 [Compound A102],< 0.1 nM
6,OC[C@H]1O[C@H](C#Cc2cnn(-c3ccc(O[C@@H]4CCOC4)cc3)c2)[C@](O)(C#Cc2ccccc2)[C@@H](O)[C@@H]1O [Compound A103],< 0.1 nM
7,OC[C@H]1O[C@H](C#Cc2cnn(-c3ccc(O[C@H]4CCOC4)cc3)c2)[C@](O)(C#Cc2ccccc2)[C@@H](O)[C@@H]1O [Compound A104],< 0.1 nM
8,OC[C@H]1O[C@H](C#Cc2cnn(-c3ccc(C4CC4)cc3)c2)[C@](O)(C#CC2CC2)[C@@H](O)[C@@H]1O [Compound A105],0.13 nM
9,CCOc1ccc(-n2cc(C#C[C@H]3O[C@H](CO)[C@@H](O)[C@H](O)[C@@]3(O)C#CC3CC3)cn2)cc1 [Compound A106],< 0.1 nM
10,CC(C)Oc1ccc(-n2cc(C#C[C@H]3O[C@H](CO)[C@@H](O)[C@H](O)[C@@]3(O)C#CC3CC3)cn2)cc1 [Compound A107],< 0.1 nM

# — patent US11964996B2, “2-alkynylmannose derivative and application thereof” (priority 2020, dated 2024)
